Test results taken from ChEMBL document CHEMBL4339185 (Eur J Med Chem, 2019).
In brackets after ≈: the same amount, converted by molar mass.

Tests used:
[1] = test system: Staphylococcus aureus; experiment: Antimicrobial activity against methicillin-resistant Staphylococcus aureus incubated for 18 hrs by serial microdilution method; format: functional
[2] = test system: Staphylococcus aureus; experiment: Antimicrobial activity against Staphylococcus aureus ATCC 6538 incubated for 18 hrs by serial microdilution method; format: functional; conditions: ATCC 6538, 18 h
[3] = test system: Staphylococcus aureus; experiment: Antimicrobial activity against MLSB-resistant Staphylococcus aureus incubated for 18 hrs by serial microdilution method; format: functional
[4] = test system: Staphylococcus epidermidis; experiment: Antimicrobial activity against Staphylococcus epidermidis ATCC 12228 incubated for 18 hrs by serial microdilution method; format: functional; conditions: ATCC 12228, 18 h
[5] = test system: Staphylococcus epidermidis; experiment: Antimicrobial activity against Staphylococcus epidermidis ATCC 49134 incubated for 18 hrs by serial microdilution method; format: functional; conditions: ATCC 49134, 18 h
[6] = test system: Enterococcus faecalis; experiment: Antimicrobial activity against Enterococcus faecalis ATCC 29212 incubated for 18 hrs by serial microdilution method; format: functional; conditions: ATCC 29212, 18 h
[7] = test system: Escherichia coli; experiment: Antimicrobial activity against Escherichia coli ATCC 25922 incubated for 18 hrs by serial microdilution method; format: functional; conditions: ATCC 25922, 18 h
[8] = Solubility of the compound in water at pH 7 by UV-vis spectrophotometric analysis; format: physicochemical
[9] = Lipophilicity, log P of the compound in octanol and water incubated for 1 h under shaking condition; format: physicochemical

`CO[C@H]1/C=C/O[C@@]2(C)Oc3c(C)c(O)c4c(O)c(c(/C=N/N5CCCCC5)c(O)c4c3C2=O)NC(=O)/C(C)=C\C=C\[C@H](C)[C@H](O)[C@@H](C)[C@@H](O)[C@@H](C)[C@H](OC(C)=O)[C@@H]1C` gave an MIC [1] of 0.0156 µg/mL (≈ 0.0193 µM), an MIC [2] of 0.0156 µg/mL (≈ 0.0193 µM) and an MIC [3] of 0.5 µg/mL (≈ 0.619 µM). It also gave an MIC [4] of 0.0156 µg/mL (≈ 0.0193 µM), an MIC [5] of 0.0312 µg/mL (≈ 0.0387 µM) and an MIC [6] of 0.5 µg/mL (≈ 0.619 µM). For the same compound, the MIC [7] was > 8 µg/mL, the solubility [8] was < 300 µg/mL and the logP at 1 h [9] was 3.27.
Compound `CO[C@H]1/C=C/O[C@@]2(C)Oc3c(C)c(O)c4c(O)c(c(CN5CCC(N(C)C)CC5)c(O)c4c3C2=O)NC(=O)/C(C)=C\C=C\[C@H](C)[C@H](O)[C@@H](C)[C@@H](O)[C@@H](C)[C@H](OC(C)=O)[C@@H]1C` has an MIC [1] of 0.25 µg/mL (≈ 0.298 µM), an MIC [2] of 0.25 µg/mL (≈ 0.298 µM) and an MIC [3] of 0.125 µg/mL (≈ 0.149 µM). For the same compound, the MIC [4] was 0.125 µg/mL (≈ 0.149 µM), the MIC [5] was 0.125 µg/mL (≈ 0.149 µM) and the MIC [6] was 8 µg/mL (≈ 9.55 µM). For the same compound, the MIC [7] was > 8 µg/mL, the solubility [8] was 1870 µg/mL (≈ 2230 µM) and the logP at 1 h [9] was 1.23.
`CO[C@H]1/C=C/O[C@@]2(C)Oc3c(C)c(O)c4c(O)c(c(CN5CCN(Cc6c(C)cc(C)cc6C)CC5)c(O)c4c3C2=O)NC(=O)/C(C)=C\C=C\[C@H](C)[C@H](O)[C@@H](C)[C@@H](O)[C@@H](C)[C@H](OC(C)=O)[C@@H]1C` showed an MIC [1] of 2 µg/mL (≈ 2.15 µM), an MIC [2] of 4 µg/mL (≈ 4.31 µM) and an MIC [3] of 2 µg/mL (≈ 2.15 µM). The MIC [4] was 0.5 µg/mL (≈ 0.539 µM), the MIC [5] was 1 µg/mL (≈ 1.08 µM) and the MIC [6] was > 8 µg/mL. For the same compound, the MIC [7] was > 8 µg/mL, the solubility [8] was < 300 µg/mL and the logP at 1 h [9] was 1.82.
For `CO[C@H]1/C=C/O[C@@]2(C)Oc3c(C)c(O)c4c(O)c(c(/C=N/Nc5ccnc6cc(Cl)ccc56)c(O)c4c3C2=O)NC(=O)/C(C)=C\C=C\[C@H](C)[C@H](O)[C@@H](C)[C@@H](O)[C@@H](C)[C@H](OC(C)=O)[C@@H]1C`, the MIC [1] was 0.25 µg/mL (≈ 0.277 µM), the MIC [2] was 0.25 µg/mL (≈ 0.277 µM) and the MIC [3] was 0.125 µg/mL (≈ 0.139 µM). It also gave an MIC [4] of 0.125 µg/mL (≈ 0.139 µM), an MIC [5] of 0.125 µg/mL (≈ 0.139 µM) and an MIC [6] of 8 µg/mL (≈ 8.87 µM). For the same compound, the MIC [7] was > 8 µg/mL, the solubility [8] was < 300 µg/mL and the logP at 1 h [9] was 2.1.
With `CO[C@H]1/C=C/O[C@@]2(C)Oc3c(C)c(O)c4c(O)c(c(/C=N/N5CCOCC5)c(O)c4c3C2=O)NC(=O)/C(C)=C\C=C\[C@H](C)[C@H](O)[C@@H](C)[C@@H](O)[C@@H](C)[C@H](OC(C)=O)[C@@H]1C` the MIC [1] was 0.5 µg/mL (≈ 0.617 µM), the MIC [2] was 1 µg/mL (≈ 1.23 µM) and the MIC [3] was 1 µg/mL (≈ 1.23 µM). For the same compound, the MIC [4] was 0.25 µg/mL (≈ 0.309 µM), the MIC [5] was 0.25 µg/mL (≈ 0.309 µM) and the MIC [6] was > 8 µg/mL. For the same compound, the MIC [7] was > 8 µg/mL, the solubility [8] was < 50 µg/mL and the logP at 1 h [9] was 2.79.
Work on `CO[C@H]1/C=C/O[C@@]2(C)Oc3c(C)c(O)c4c(O)c(c(CNC5CCN(CC6CCCCC6)CC5)c(O)c4c3C2=O)NC(=O)/C(C)=C\C=C\[C@H](C)[C@H](O)[C@@H](C)[C@@H](O)[C@@H](C)[C@H](OC(C)=O)[C@@H]1C` yielded an MIC [1] of 0.25 µg/mL (≈ 0.276 µM), an MIC [2] of 0.25 µg/mL (≈ 0.276 µM) and an MIC [3] of 0.125 µg/mL (≈ 0.138 µM). It also gave an MIC [4] of 0.125 µg/mL (≈ 0.138 µM), an MIC [5] of 0.125 µg/mL (≈ 0.138 µM) and an MIC [6] of 4 µg/mL (≈ 4.41 µM). The MIC [7] was > 8 µg/mL, the solubility [8] was < 50 µg/mL and the logP at 1 h [9] was 3.31.
For `CO[C@H]1/C=C/O[C@@]2(C)Oc3c(C)c(O)c4c(O)c(c(CN5CCC(NS(C)(=O)=O)CC5)c(O)c4c3C2=O)NC(=O)/C(C)=C\C=C\[C@H](C)[C@H](O)[C@@H](C)[C@@H](O)[C@@H](C)[C@H](OC(C)=O)[C@@H]1C`, the MIC [1] was 2 µg/mL (≈ 2.25 µM), the MIC [2] was 4 µg/mL (≈ 4.5 µM) and the MIC [3] was 2 µg/mL (≈ 2.25 µM). For the same compound, the MIC [4] was 0.5 µg/mL (≈ 0.563 µM), the MIC [5] was 0.5 µg/mL (≈ 0.563 µM) and the MIC [6] was > 8 µg/mL. For the same compound, the MIC [7] was > 8 µg/mL, the solubility [8] was 36400 µg/mL (≈ 41000 µM) and the logP at 1 h [9] was 0.31.
For `CO[C@H]1/C=C/O[C@@]2(C)Oc3c(C)c(O)c4c(O)c(c(CN5CCN(C)CC5)c(O)c4c3C2=O)NC(=O)/C(C)=C\C=C\[C@H](C)[C@H](O)[C@@H](C)[C@@H](O)[C@@H](C)[C@H](OC(C)=O)[C@@H]1C`, the MIC [1] was 0.5 µg/mL (≈ 0.617 µM), the MIC [2] was 0.5 µg/mL (≈ 0.617 µM) and the MIC [3] was 1 µg/mL (≈ 1.23 µM). The MIC [4] was 0.25 µg/mL (≈ 0.309 µM), the MIC [5] was 0.25 µg/mL (≈ 0.309 µM) and the MIC [6] was > 8 µg/mL. The MIC [7] was > 8 µg/mL, the solubility [8] was 100 µg/mL (≈ 123 µM) and the logP at 1 h [9] was 1.76.
Compound `CO[C@H]1/C=C/O[C@@]2(C)Oc3c(C)c(O)c4c(O)c(c(/C=N/NC5CCCCC5)c(O)c4c3C2=O)NC(=O)/C(C)=C\C=C\[C@H](C)[C@H](O)[C@@H](C)[C@@H](O)[C@@H](C)[C@H](OC(C)=O)[C@@H]1C` has an MIC [1] of 0.5 µg/mL (≈ 0.608 µM), an MIC [2] of 0.5 µg/mL (≈ 0.608 µM) and an MIC [3] of 0.5 µg/mL (≈ 0.608 µM). It also gave an MIC [4] of 0.25 µg/mL (≈ 0.304 µM), an MIC [5] of 0.25 µg/mL (≈ 0.304 µM) and an MIC [6] of 1 µg/mL (≈ 1.22 µM). For the same compound, the MIC [7] was > 8 µg/mL, the solubility [8] was < 50 µg/mL and the logP at 1 h [9] was 2.1.
`CO[C@H]1/C=C/O[C@@]2(C)Oc3c(C)c(O)c4c(O)c(c(CN5CCN(c6ncccn6)CC5)c(O)c4c3C2=O)NC(=O)/C(C)=C\C=C\[C@H](C)[C@H](O)[C@@H](C)[C@@H](O)[C@@H](C)[C@H](OC(C)=O)[C@@H]1C` showed an MIC [1] of 1 µg/mL (≈ 1.14 µM), an MIC [2] of 1 µg/mL (≈ 1.14 µM) and an MIC [3] of 2 µg/mL (≈ 2.29 µM). The MIC [4] was 0.25 µg/mL (≈ 0.286 µM), the MIC [5] was 0.25 µg/mL (≈ 0.286 µM) and the MIC [6] was > 8 µg/mL. The MIC [7] was > 8 µg/mL, the solubility [8] was 50 µg/mL (≈ 57.2 µM) and the logP at 1 h [9] was 2.02.
